Measurements published in patent EP1513800B1, “N-BENZOYLUREIDOCINNAMATE DERIVATIVES, METHOD FOR PRODUCTION AND USE THEREOF” (Sanofi-Aventis Deutschland GmbH, priority 2002, dated 2003).

Test system: Humane Glykogenphosphorylase a
Test: Glycogen phosphorylase a activity test (reverse direction, release of inorganic phosphate from glucose-1-phosphate)
Format: biochemical
Details: 10 µM test substance; in vitro; 40 min at room temperature; absorbance at 820 nm; duplicate determinations
Experimental: Glykogenphosphorylase a Aktivitätstest
Der Effekt von Verbindungen auf die Aktivität der aktiven Form der Glykogenphosphorylase (GPa) wurde in der umgekehrten Richtung, durch Verfolgen der Glykogensynthese aus Glukose-1-Phosphat an Hand der Bestimmung der Freisetzung von anorganischem Phosphat, gemessen. […] Prüfsubstanzen wurden als 10 mM Lösung in DMSO zubereitet und auf 50 µM mit Pufferlösung T verdünnt. Zu 10 µl dieser Lösung wurden 10 µl 37,5 mM Glukose, gelöst in Pufferlösung T und 5 mg/mL Glykogen, sowie 10 µl einer Lösung von humaner Glykogenphosphorylase a (10 µg Protein/ml) und 20 µl Glukose-1-Phosphat, 2,5 mM zugegeben. Der basale Wert der Glykogenphosphorylase a Aktivität in Abwesenheit von Prüfsubstanz wurde durch Zugabe von 10 µl Pufferlösung T (0,1 % DMSO) bestimmt. […] Zur Bestimmung der Hintergrundsabsorption wurde in einem separaten Ansatz die Stop-Lösung unmittelbar nach Zugabe der Glukose-1-Phosphatlösung zugegeben. Dieser Test wurde mit einer Konzentrationen von 10 µM der Prüfsubstanz durchgeführt, um die jeweilige Hemmung der Glykogenphosphorylase a in vitro durch die Prüfsubstanz zu bestimmen. Tabelle 2: Biologische Aktivität

Structure (SMILES)	% Inhibition bei 10 µM [%]
O=C(O)/C=C/c1ccccc1NC(=O)NC(=O)c1cc(F)c(F)cc1Cl [compound 2, 3-{2-[3-(2-Chloro-4,5-difluorobenzoyl)-ureido]-phenyl}-acrylsäure]	101
COC(=O)C=Cc1cc(C(=O)O)ccc1NC(=O)NC(=O)c1cc(F)c(F)cc1Cl [compound 12, 4-[3-(2-Chloro-4,5-difluorobenzoyl)-ureido]-3-(2-methoxycarbonyl-vinyl)-benzoesäure]	104
